The NIST ThermoML archive (doi:10.1016/j.jct.2016.10.009)

Assay: xn = mol fraction of the nth substance listed
Details: Liquid, Vibrating tube method

CC(C)OC(C)C [diisopropyl ether] + CCC(C)O
mass density [kg/m3]
Details | x2 = 0 | x2 = 0.2036 | x2 = 0.3227 | x2 = 0.4464 | x2 = 0.4973 | x2 = 0.6595 | x2 = 0.8482
293.15 K, 100 kPa | 723.5 | 737.9 | 746.6 | 756.1 | – | 774.1 | 791.8
293.15 K, 1000 kPa | 724.6 | 739 | 747.6 | 757 | 761.1 | 774.9 | 792.6
293.15 K, 5000 kPa | 729.4 | 743.4 | 751.8 | 761.1 | 765 | 778.5 | 795.9
293.15 K, 10000 kPa | 734.9 | 748.6 | 756.8 | 765.7 | 769.6 | 782.9 | 799.8
293.15 K, 15000 kPa | 740 | 753.3 | 761.4 | 770.2 | 774 | 786.9 | 803.5
293.15 K, 20000 kPa | 744.8 | 757.9 | 765.7 | 774.3 | 778.1 | 790.8 | 807.1
293.15 K, 25000 kPa | 749.4 | 762.2 | 769.9 | 778.3 | 782 | 794.5 | 810.4
293.15 K, 30000 kPa | 753.7 | 766.2 | 773.8 | 782.2 | 785.7 | 798 | 813.7
293.15 K, 35000 kPa | 757.7 | 770.1 | 777.6 | 785.7 | 789.3 | 801.3 | 816.8
293.15 K, 40000 kPa | 761.6 | 773.8 | 781.1 | 789.2 | 792.7 | 804.5 | 819.8
293.15 K, 45000 kPa | 765.3 | 777.3 | 784.6 | 792.5 | 796 | 807.7 | 822.7
293.15 K, 50000 kPa | 768.9 | 780.7 | 787.9 | 795.7 | 799.1 | 810.7 | 825.5
293.15 K, 55000 kPa | 772.4 | 784 | 791.1 | 798.8 | 802.2 | 813.6 | 828.3
293.15 K, 60000 kPa | 775.7 | 787.1 | 794.2 | 801.8 | 805.2 | 816.4 | 830.9
293.15 K, 65000 kPa | 778.9 | 790.3 | 797.2 | 804.8 | 808.1 | 819.2 | 833.5
293.15 K, 70000 kPa | 782 | 793.2 | 800.1 | 807.5 | 810.8 | 821.8 | 836
293.15 K, 80000 kPa | 787.9 | 798.9 | 805.6 | 812.9 | 816.2 | 826.9 | 840.8
293.15 K, 90000 kPa | 793.5 | 804.4 | 810.9 | 818.1 | 821.3 | 831.9 | 845.5
293.15 K, 100000 kPa | 798.8 | 809.3 | 815.9 | 822.9 | 826 | 836.4 | 849.8
293.15 K, 110000 kPa | 803.9 | 814.2 | 820.7 | 827.6 | 830.7 | 840.9 | 854.1
293.15 K, 120000 kPa | 808.7 | 818.9 | 825.2 | 832.1 | 835.1 | 845.2 | 858.2
293.15 K, 130000 kPa | 813.2 | 823.4 | 829.6 | 836.4 | 839.3 | 849.3 | 862.1
293.15 K, 140000 kPa | 817.6 | 827.6 | 833.7 | 840.4 | 843.3 | 853.2 | 865.8
298.15 K, 100 kPa | 718.3 | 732.9 | 741.7 | 751.2 | 755.4 | 769.4 | 787.5
298.15 K, 1000 kPa | 719.6 | 734 | 742.8 | 752.2 | 756.4 | 770.3 | 788.3
298.15 K, 5000 kPa | 724.5 | 738.6 | 747.1 | 756.3 | 760.5 | 774.1 | 791.7
298.15 K, 10000 kPa | 730.2 | 743.9 | 752.2 | 761.2 | 765.2 | 778.5 | 795.7
298.15 K, 15000 kPa | 735.6 | 748.8 | 757 | 765.8 | 769.7 | 782.8 | 799.6
298.15 K, 20000 kPa | 740.5 | 753.5 | 761.5 | 770.1 | 773.9 | 786.7 | 803.2
298.15 K, 25000 kPa | 745.2 | 757.9 | 765.7 | 774.2 | 777.9 | 790.5 | 806.6
298.15 K, 30000 kPa | 749.6 | 762.1 | 769.8 | 778.1 | 781.8 | 794.1 | 810
298.15 K, 35000 kPa | 753.7 | 766 | 773.6 | 781.7 | 785.4 | 797.5 | 813.1
298.15 K, 40000 kPa | 757.8 | 769.8 | 777.3 | 785.3 | 788.9 | 800.8 | 816.2
298.15 K, 45000 kPa | 761.6 | 773.4 | 780.8 | 788.7 | 792.2 | 804.1 | 819.2
298.15 K, 50000 kPa | 765.2 | 776.9 | 784.2 | 792 | 795.5 | 807.1 | 822.1
298.15 K, 55000 kPa | 768.8 | 780.3 | 787.5 | 795.2 | 798.6 | 810.1 | 824.9
298.15 K, 60000 kPa | 772.2 | 783.5 | 790.6 | 798.2 | 801.6 | 812.9 | 827.6
298.15 K, 65000 kPa | 775.4 | 786.6 | 793.7 | 801.2 | 804.5 | 815.7 | 830.2
298.15 K, 70000 kPa | 778.6 | 789.7 | 796.6 | 804.1 | 807.4 | 818.5 | 832.8
298.15 K, 80000 kPa | 784.6 | 795.5 | 802.3 | 809.6 | 812.8 | 823.7 | 837.7
298.15 K, 90000 kPa | 790.3 | 801 | 807.7 | 814.9 | 818 | 828.7 | 842.4
298.15 K, 100000 kPa | 795.7 | 806.1 | 812.7 | 819.8 | 822.9 | 833.3 | 846.9
298.15 K, 110000 kPa | 800.8 | 811.1 | 817.6 | 824.5 | 827.5 | 837.9 | 851.2
298.15 K, 120000 kPa | 805.6 | 815.8 | 822.1 | 829 | 832 | 842.1 | 855.3
298.15 K, 130000 kPa | 810.3 | 820.3 | 826.5 | 833.3 | 836.3 | 846.3 | 859.2
298.15 K, 140000 kPa | 814.6 | 824.6 | 830.9 | 837.5 | 840.4 | 850.3 | 863.1
313.15 K, 100 kPa | 702.4 | 717.2 | 726.3 | 736.2 | 740.5 | 755.1 | 773.8
313.15 K, 1000 kPa | 703.8 | 718.4 | 727.5 | 737.3 | 741.6 | 756.1 | 774.7
313.15 K, 5000 kPa | 709.4 | 723.5 | 732.4 | 741.9 | 746.1 | 760.2 | 778.4
313.15 K, 10000 kPa | 715.8 | 729.6 | 738.2 | 747.4 | 751.5 | 765.2 | 782.9
313.15 K, 15000 kPa | 721.7 | 735 | 743.4 | 752.4 | 756.4 | 769.8 | 787.1
313.15 K, 20000 kPa | 727.2 | 740.2 | 748.4 | 757.1 | 761 | 774.1 | 791.1
313.15 K, 25000 kPa | 732.1 | 744.8 | 752.8 | 761.4 | 765.2 | 778 | 794.6
313.15 K, 30000 kPa | 737.1 | 749.5 | 757.4 | 765.8 | 769.6 | 782.1 | 798.4
313.15 K, 35000 kPa | 741.6 | 753.8 | 761.5 | 769.8 | 773.5 | 785.8 | 801.8
313.15 K, 40000 kPa | 745.9 | 757.8 | 765.4 | 773.6 | 777.2 | 789.3 | 805.1
313.15 K, 45000 kPa | 750 | 761.7 | 769.2 | 777.2 | 780.8 | 792.8 | 808.3
313.15 K, 50000 kPa | 753.9 | 765.5 | 772.9 | 780.8 | 784.3 | 796.1 | 811.4
313.15 K, 55000 kPa | 757.7 | 769.1 | 776.4 | 784.2 | 787.7 | 799.3 | 814.4
313.15 K, 60000 kPa | 761.3 | 772.7 | 779.8 | 787.4 | 790.9 | 802.3 | 817.3
313.15 K, 65000 kPa | 764.8 | 776 | 783.1 | 790.7 | 794.1 | 805.4 | 820.1
313.15 K, 70000 kPa | 768.1 | 779.1 | 786.1 | 793.7 | 797 | 808.2 | 822.8
313.15 K, 80000 kPa | 774.4 | 785.2 | 792.1 | 799.4 | 802.7 | 813.7 | 827.9
313.15 K, 90000 kPa | 780.5 | 791 | 797.8 | 805 | 808.2 | 818.9 | 832.9
313.15 K, 100000 kPa | 786.1 | 796.5 | 803.1 | 810.1 | 813.4 | 823.9 | 837.6
313.15 K, 110000 kPa | 791.4 | 801.7 | 808.2 | 815.1 | 818.3 | 828.6 | 842.1
313.15 K, 120000 kPa | 796.5 | 806.5 | 813 | 819.8 | 822.9 | 833 | 846.4
313.15 K, 130000 kPa | 801.4 | 811.3 | 817.7 | 824.4 | 827.4 | 837.4 | 850.5
313.15 K, 140000 kPa | 806 | 815.8 | 822 | 828.7 | 831.7 | 841.6 | 854.5
333.15 K, 100 kPa | 680.5 | 695.4 | 704.8 | 715.1 | 719.6 | 734.7 | 754.2
333.15 K, 1000 kPa | 682.1 | 696.9 | 706.3 | 716.4 | 720.9 | 735.9 | 755.4
333.15 K, 5000 kPa | 688.9 | 703 | 712.1 | 721.9 | 726.3 | 740.8 | 759.7
333.15 K, 10000 kPa | 696.4 | 709.9 | 718.7 | 728.2 | 732.4 | 746.5 | 764.8
333.15 K, 15000 kPa | 703.2 | 716.4 | 724.8 | 734 | 738.1 | 751.8 | 769.6
333.15 K, 20000 kPa | 709.4 | 722.2 | 730.4 | 739.3 | 743.4 | 756.7 | 774.1
333.15 K, 25000 kPa | 715.1 | 727.6 | 735.7 | 744.4 | 748.3 | 761.3 | 778.2
333.15 K, 30000 kPa | 720.5 | 732.7 | 740.5 | 749.1 | 752.9 | 765.7 | 782.3
333.15 K, 35000 kPa | 725.6 | 737.5 | 745.2 | 753.6 | 757.3 | 769.8 | 786.2
333.15 K, 40000 kPa | 730.3 | 742 | 749.6 | 757.8 | 761.5 | 773.7 | 789.8
333.15 K, 45000 kPa | 734.8 | 746.3 | 753.7 | – | – | – | –
